One data set deals with CYP1A1 versus CYP1B1. The experiment in a line: Selectivity index, ratio of IC50 for inhibition of recombinant human CYP1A1 to IC50 for inhibition of recombinant human CYP1B1. The following applies: recombinant human CYP1A1 and recombinant human CYP1B1.
Data set [1] deals with T1, Cytochrome P450 1A1 (Homo sapiens, UniProt P04798).
T1 sequence (P04798 whole entry): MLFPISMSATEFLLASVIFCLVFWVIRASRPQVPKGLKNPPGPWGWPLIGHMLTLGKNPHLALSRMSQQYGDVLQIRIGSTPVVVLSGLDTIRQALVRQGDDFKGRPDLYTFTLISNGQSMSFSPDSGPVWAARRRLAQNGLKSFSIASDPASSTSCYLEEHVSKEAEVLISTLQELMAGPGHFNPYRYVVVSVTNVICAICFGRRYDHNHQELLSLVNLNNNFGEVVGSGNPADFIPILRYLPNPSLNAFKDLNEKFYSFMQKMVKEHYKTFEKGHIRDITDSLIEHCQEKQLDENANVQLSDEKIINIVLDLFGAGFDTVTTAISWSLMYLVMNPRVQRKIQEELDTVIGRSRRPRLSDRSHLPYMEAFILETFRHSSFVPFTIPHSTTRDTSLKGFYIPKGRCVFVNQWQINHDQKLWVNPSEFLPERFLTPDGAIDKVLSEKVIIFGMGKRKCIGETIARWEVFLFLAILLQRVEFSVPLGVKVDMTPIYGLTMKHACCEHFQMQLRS
The experiment in a line: Inhibition of recombinant human CYP1A1 using 7-ethyl-0-resorufin as substrate incubated for 30 mins in presence of NADPH by EROD assay.

The test system of a further data set is CYP1A2 versus CYP1B1. The experiment in a line: Selectivity index, ratio of IC50 for inhibition of recombinant human CYP1A2 to IC50 for inhibition of recombinant human CYP1B1. The note with it: recombinant human CYP1A2 and recombinant human CYP1B1.
The next data set concerns the target T2, CYP1B1 (Homo sapiens, UniProt Q16678).
T2 sequence (Q16678 whole entry): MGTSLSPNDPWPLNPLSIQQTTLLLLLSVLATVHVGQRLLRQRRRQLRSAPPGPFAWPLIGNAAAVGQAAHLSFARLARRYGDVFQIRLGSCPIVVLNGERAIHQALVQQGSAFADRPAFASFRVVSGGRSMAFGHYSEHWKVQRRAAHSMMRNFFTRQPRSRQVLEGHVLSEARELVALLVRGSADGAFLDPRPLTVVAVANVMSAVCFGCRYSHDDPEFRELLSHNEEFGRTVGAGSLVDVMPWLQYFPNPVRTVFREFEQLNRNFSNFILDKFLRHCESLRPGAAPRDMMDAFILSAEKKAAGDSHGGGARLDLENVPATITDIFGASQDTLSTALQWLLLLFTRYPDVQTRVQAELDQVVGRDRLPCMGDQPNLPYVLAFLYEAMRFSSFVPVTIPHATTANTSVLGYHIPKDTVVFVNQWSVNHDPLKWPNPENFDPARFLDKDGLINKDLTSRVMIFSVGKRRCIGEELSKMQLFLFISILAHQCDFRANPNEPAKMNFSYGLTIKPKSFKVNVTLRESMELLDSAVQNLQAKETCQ
The experiment in a line: Inhibition of recombinant human CYP1B1 assessed as inhibition ratio at 100 nM using 7-ethyl-0-resorufin as substrate incubated for 30 mins in presence of NADPH by EROD assay relative to control. The note with it: recombinant human CYP1B1, probe 7-ethyl-0-resorufin.

The target of data set [2] is T3, Cytochrome P450 1A2 (Homo sapiens, UniProt P05177).
T3 sequence (P05177 whole entry): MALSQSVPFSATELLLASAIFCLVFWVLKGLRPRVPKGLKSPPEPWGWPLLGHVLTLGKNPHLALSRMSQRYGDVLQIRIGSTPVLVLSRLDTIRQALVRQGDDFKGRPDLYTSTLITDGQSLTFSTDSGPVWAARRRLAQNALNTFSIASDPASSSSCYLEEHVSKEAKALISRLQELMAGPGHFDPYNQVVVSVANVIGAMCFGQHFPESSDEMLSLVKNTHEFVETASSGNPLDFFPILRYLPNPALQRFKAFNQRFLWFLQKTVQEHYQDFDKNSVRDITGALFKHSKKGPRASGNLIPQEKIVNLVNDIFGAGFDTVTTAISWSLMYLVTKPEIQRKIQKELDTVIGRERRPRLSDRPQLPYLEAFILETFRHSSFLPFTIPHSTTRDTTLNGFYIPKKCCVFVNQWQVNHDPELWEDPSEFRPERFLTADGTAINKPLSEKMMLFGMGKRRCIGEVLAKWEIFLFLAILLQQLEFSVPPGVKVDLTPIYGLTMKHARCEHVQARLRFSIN
The experiment in a line: Inhibition of recombinant human CYP1A2 using 7-ethyl-0-resorufin as substrate incubated for 30 mins in presence of NADPH by EROD assay.

In data set [3] the target is T4, Cytochrome P450 1B1 (Homo sapiens, UniProt Q16678).
T4 sequence (Q16678 whole entry): T2 sequence (Q16678 whole entry)
The experiment in a line: Inhibition of recombinant human CYP1B1 using 7-ethyl-0-resorufin as substrate incubated for 30 mins in presence of NADPH by EROD assay.

Data set [4] addresses T1, Cytochrome P450 1A1. The experiment in a line: Inhibition of CYP1A1 (unknown origin) assessed as inhibition constant. It is filed as ADME.
Data set [5] concerns A549. Briefly: Antiproliferative activity against human A549 cells assessed as reduction in cell viability at 20 nM by MTT assay. It is filed as functional, cell-based. In general terms: Formazan colour is commonly taken as a measure of viable cells.
For data set [6], the system named is A549. The experiment in a line: Antiproliferative activity against human A549 cells assessed as reduction in cell viability at 20 nM in presence of DMBA by MTT assay. Type of data set: functional, cell-based.
Data set [7] relates to A549. The experiment in a line: Antiproliferative activity against human A549 cells assessed as reduction in cell viability at 10 nM by MTT assay. Type of data set: functional, cell-based.
Data set [8] has as its system A549. The experiment in a line: Inhibition of DMBA induced taxol resistance in human A549 cells. It is filed as functional, cell-based. The following applies: dose 2.5-10 µM.
Data set [9] deals with T4, Cytochrome P450 1B1. Briefly: Inhibition of CYP1B1 (unknown origin). It is filed as ADME.
Data set [10] concerns the target T1, Cytochrome P450 1A1. The experiment in a line: Inhibition of CYP1A1 (unknown origin). It is filed as ADME.
Data set [11] has as its target T3, Cytochrome P450 1A2. Briefly: Inhibition of CYP1A2 (unknown origin). It is filed as ADME.
The target of data set [12] is T4, Cytochrome P450 1B1. The experiment in a line: Inhibition of human CYP1B1. Type of data set: ADME.
For another data set, the system named is A549/TR. Briefly: Reversal of taxol resistance in human A549/Taxol cells assessed as increase in Rho123 accumulation at 5 uM incubated for 20 mins by multimode plate reader analysis. Type of data set: functional, cell-based.

The results in this text go back to ChEMBL document CHEMBL5236635, “Structure-Based Drug Design and Synthesis of Novel N-Aryl-2,4-bithiazole-2-amine CYP1B1-Selective Inhibitors in Overcoming Taxol Resistance in A549 Cells” (J Med Chem, 2022).

The term pIC50 denotes the IC50 on a negative log10 scale, so that one unit is a factor of ten. What is called inhibition is the share of the control response that was lost under treatment. A word on the pKi: it is the negative decadic logarithm of the Ki, by convention in mol/L.

pIC50, pKi: −log10 of the molar value. Active and inactive are the calls of the source. The calls are words filed in the database; no cut-off is given here. A value given as a limit tells only on which side of the number the result lay.

For `Clc1cc(Nc2nc(-c3nccs3)cs2)cc(Cl)c1Cl`, the selectivity ratio was determined as 64.7 in the data set with CYP1A1 versus CYP1B1 and 64.8 with CYP1A2 versus CYP1B1. Also, the negative logarithm of the IC50 (pIC50) at Cytochrome P450 1A1 [1] is 6.32; on Cytochrome P450 1A2 [2] it was 6.32; at Cytochrome P450 1B1 [3], 8.13. Further, on CYP1B1, the inhibition at 0.5 h, 0.1 µM was found to be 100%.

`CCC/C(C=C(C)C)=C\COc1c2occc2c(C)c2ccc(=O)oc12`: the pKi at Cytochrome P450 1A1 [4] is 5.14.

For the compound `Clc1ccc(Nc2nc(-c3nccs3)cs2)cc1`, the results for the selectivity ratio in the data set on CYP1A1 versus CYP1B1 and with CYP1A2 versus CYP1B1 were 92.9 and 18.8, respectively. The figures for the negative logarithm of the IC50 (pIC50) at Cytochrome P450 1A1 [1], on Cytochrome P450 1A2 [2] and on Cytochrome P450 1B1 [3] were 6.23, 6.93 and 8.20, respectively. The inhibition at 0.5 h, 0.1 µM at CYP1B1 came out at 90%.

For the compound `CC(=O)O[C@H]1C(=O)[C@@]2(C)[C@H]([C@H](OC(=O)c3ccccc3)[C@]3(O)C[C@H](OC(=O)[C@H](O)[C@@H](NC(=O)c4ccccc4)c4ccccc4)C(C)=C1C3(C)C)[C@]1(OC(C)=O)CO[C@@H]1C[C@@H]2O`, the result in the data set on A549 [5] and with A549 [7] was Active. For the same compound, the outcome in the data set on A549 [6] was inactive.

For `Clc1ccccc1-c1csc(-c2csc(Nc3ccc(N4CCOCC4)cc3)n2)n1`, the selectivity ratio in the data set with CYP1A1 versus CYP1B1 is 5.37. Further, the pIC50 on Cytochrome P450 1A1 [1] was 7.33; at Cytochrome P450 1A2 [2], under 5.00; at Cytochrome P450 1B1 [3] it was 8.06. For the same compound, the inhibition entry in the data set on A549 [8] was “Dose-Dependent Effect”.

As to `Fc1ccccc1-c1csc(-c2csc(Nc3cc(Cl)cc(Cl)c3)n2)n1`, the inhibition result in the data set with A549 [8] is “Dose-Dependent Effect”.

`Nc1ccc2[nH]c3c(c2c1)CCn1c-3nc2ccccc2c1=O`: the pIC50 on Cytochrome P450 1B1 [9] was 7.05; on Cytochrome P450 1A1 [10], 5.59; on Cytochrome P450 1A2 [11], 5.59.

As for `Cc1cc(O)c2c(c1)C(=O)c1cc(O)cc(O)c1C2=O` [EMODIN], the pIC50 on Cytochrome P450 1B1 [12] is 5.43.

As for `COc1ccc(CCN(C)CCCC(C#N)(c2ccc(OC)c(OC)c2)C(C)C)cc1OC` (stereo not drawn), the result with A549/TR was Active.

For `c1cn(Cc2ccc(Nc3nc(-c4nccs4)cs3)cc2)cn1`, the selectivity ratio was 14.1 in the data set on CYP1A1 versus CYP1B1 and 9.7 with CYP1A2 versus CYP1B1. Besides, the pIC50 on Cytochrome P450 1A1 [1] was 7.15; at Cytochrome P450 1A2 [2] it was 7.31; at Cytochrome P450 1B1 [3] it was 8.30. The inhibition at 0.5 h, 0.1 µM at CYP1B1 was 99.7%.

`c1csc(-c2csc(Nc3ccc(Cn4cncn4)cc3)n2)n1`: the selectivity ratio in the data set on CYP1A1 versus CYP1B1 came out at 18.2; in the data set on CYP1A2 versus CYP1B1 it was 15.4. Also, the negative-log IC50 (pIC50) at Cytochrome P450 1A1 [1] was 6.78; at Cytochrome P450 1A2 [2], 6.85; at Cytochrome P450 1B1 [3], 8.04. For the same compound, the inhibition at 0.5 h, 0.1 µM at CYP1B1 is 92%.

On to `c1csc(-c2csc(Nc3ccc4c(c3)OCO4)n2)n1`, for which the values for the selectivity ratio with CYP1A1 versus CYP1B1 and in the data set with CYP1A2 versus CYP1B1 were 10.3 and 8.71, respectively. In addition, the pIC50 on Cytochrome P450 1A1 [1] is 7.03; at Cytochrome P450 1A2 [2], 7.11; at Cytochrome P450 1B1 [3], 8.05. Besides, the inhibition at 0.5 h, 0.1 µM at CYP1B1 was determined as 97.6%.

Consider `COc1cc(Nc2nc(-c3nccs3)cs2)cc(OC)c1`, for which the selectivity ratio worked out at 363 in the data set with CYP1A1 versus CYP1B1 and 733 in the data set with CYP1A2 versus CYP1B1. In addition, the negative logarithm of the IC50 (pIC50) at Cytochrome P450 1A1 [1] was 7.36; at Cytochrome P450 1A2 [2], 7.05; at Cytochrome P450 1B1 [3] it was 9.92. The inhibition at 0.5 h, 0.1 µM on CYP1B1 came to 90.7%.

For the compound `c1csc(-c2csc(Nc3ccc(N4CCOCC4)cc3)n2)n1`, the values for the selectivity ratio in the data set with CYP1A1 versus CYP1B1 and in the data set on CYP1A2 versus CYP1B1 were 126 and 236, respectively. The pIC50 on Cytochrome P450 1A1 [1] was 6.00; on Cytochrome P450 1A2 [2], 5.73; on Cytochrome P450 1B1 [3] it was 8.10. Further, the inhibition at 0.5 h, 0.1 µM at CYP1B1 was 87.7%.

As for `c1cc(-c2csc(-c3csc(Nc4ccc(N5CCOCC5)cc4)n3)n2)ccn1`, the figures for the selectivity ratio in the data set with CYP1A1 versus CYP1B1 and with CYP1A2 versus CYP1B1 were 29.2 and 2.04, respectively. Further, the pIC50 at Cytochrome P450 1A1 [1] is 5.35; at Cytochrome P450 1A2 [2], 6.51; on Cytochrome P450 1B1 [3] it was 6.82.

As for `Clc1cc(Cl)cc(Nc2nc(-c3nccs3)cs2)c1`, the results for the selectivity ratio with CYP1A1 versus CYP1B1 and in the data set on CYP1A2 versus CYP1B1 were 101 and 31.5, respectively. Besides, the negative-log IC50 (pIC50) at Cytochrome P450 1A1 [1] is 6.75; on Cytochrome P450 1A2 [2], 7.25; at Cytochrome P450 1B1 [3], 8.75. The inhibition at 0.5 h, 0.1 µM on CYP1B1 came out at 97.2%.

Consider `Cc1sc(-c2csc(Nc3cccc(F)c3)n2)nc1-c1ccncc1`, for which the selectivity ratio in the data set with CYP1A1 versus CYP1B1 worked out at 1.43; in the data set with CYP1A2 versus CYP1B1 it was 3.14. Also, the negative logarithm of the IC50 (pIC50) on Cytochrome P450 1A1 [1] was 6.98; at Cytochrome P450 1A2 [2], 6.64; at Cytochrome P450 1B1 [3], 7.13.
